The results in this text go back to patent publication US20180028480A1, “METHODS OF REDUCING OR PREVENTING OXIDATIVE MODIFICATION OF MEMBRANE POLYUNSATURATED FATTY ACIDS” (Amarin Pharmaceuticals Ireland Limited, priority 2015, published 2018).

The subject of test [1] is lipid vesicles enriched with PUFAs and cholesterol. In words: Glucose-induced membrane lipid peroxidation (LOOH) in DLPC/cholesterol multilamellar vesicles (Example 4). The following applies: each at 1.0 μM; glucose 200 mg/dL; 96 hours. The class given is biochemical. As for the experimental part: Vitamin E (α-tocopherol) was also purchased from Sigma-Aldrich and prepared in ethanol at 1.0 mM (ε32 3.06×10^4 M^−1 cm^−1 at 294 nm) just prior to experimental use. […] All test compounds were further diluted in ethanol or aqueous buffer as needed. Glucose was prepared in saline buffer (0.5 mM HEPES, 154 mM NaCl, pH 7.3) at 11.0 mM (200 mg/dL). CHOD-iodide color reagent (stock) was prepared, with slight modification, as described by from El-Saadani et al. (J. […] Prior to experimental use, the CHOD reagent was activated by adding 24 μM ethylenediaminetetraacetic acid (EDTA), 20 μM butylated hydroxytoluene (BHT), and 0.2% Triton X-100. Multilamellar vesicles (MLVs) were prepared as binary mixtures of DLPC (1.0 or 2.5 mg total phospholipid per sample) and cholesterol at a fixed cholesterol-to-phospholipid (C/P) mole ratio of 0.6:1. Component lipids (in chloroform) were transferred to 13×100 mm borosilicate culture tubes and combined with vehicle (ethanol) or an equal volume of fatty acid, vitamin E, or ATM stock solutions, each adjusted to achieve desired treatment concentrations. Samples were shell-dried under nitrogen gas and placed under vacuum for 1 h to remove residual solvent. […] Lipid suspensions were then vortexed for 3 min at ambient temperature to form MLVs. All MLV samples were subjected to time-dependent autoxidation by incubating at 37° C. in an uncovered, shaking water bath. This method allows lipid peroxidation to occur gradually without requiring the use of exogenous initiators. Small aliquots (5-100 μL) of each sample were removed, immediately following MLV preparation (0 hour) and after exposing samples to oxidative conditions for 72 or 96 hour, and combined with 1.0 mL of activated CHOD-iodide color reagent. Aliquot volume was reduced with each successive time point to ensure that spectrophotometric readings were within the optimal adsorption range. Test samples were covered and incubated in darkness at room temperature for at least 4 hr. Sample absorbances were then measured against a CHOD blank at 365 nm using a Beckman DU-640 spectrophotometer. The CHOD colorimetric assay is based on the oxidation of iodide (I^−) by lipid hydroperoxide (LOOH) to form triiodide (I3^−), the quantity of which is directly proportional to the amount of LOOH present in the lipid sample. The molar absorptivity (c) of I3^− is 2.46×10^4 M^−1 cm^−1 at 365 nm. […] The concentration of glucose selected was consistent with previous experimental studies of hyperglycemia under controlled laboratory conditions or observed in well-defined animal models of Type II diabetes following a glucose challenge. […] Values in FIG. 1 are mean±S.D. (N=6). […]

Test [2] can be described thus: Fluorescence anisotropy, DPH apparent rotational correlation time (Example 8). Conditions: POPC, 0 or 50 mol % cholesterol; increasing omega-3 fatty acid concentrations (FIGS. 16A-16B). An excerpt:
FIGS. 16A-16B show the dose-dependent effects of EPA and DHA on the ARCT measured for DPH in POPC membranes prepared at either 0 or 50 mol % cholesterol. †p=0.0331 versus cognate DHA treatment (5 mol % omega-3 fatty acids (O3FA), no cholesterol); ^§p=0.0016 versus cognate DHA treatment (5 mol % O3FA, 50 mol % cholesterol); ^‡p=0.0032 versus cognate DHA treatment (10 mol % O3FA, 50 mol % cholesterol) (unpaired, two-tailed Student's t-test). Values are mean±S.D. (N=3).
Fluorescence anisotropy experiments were conducted using large unilamellar vesicles (LUVs) of 100 nm diameter of either POPC (or POPC/cholesterol) containing increasing concentrations of EPA or DHA and 1 mol % DPH fluorescent. Briefly, 640 nmol of total lipid (phospholipid and sterol) and 6.4 nmol of fluorescent probe was mixed well and dried under a stream of nitrogen while being warmed gently at 35° C. […]
In order to ensure that the anisotropy values measured for DPH are not influenced by lifetime-induced artifacts, the apparent (average) rotational correlation times (ARCT) were calculated using Perrin's equation: […]
where r0 is the limiting anisotropy of DPH, r is the steady state anisotropy, and is the mean fluorescence lifetime.
In general terms: In fluorescence polarisation assays a small probe gives low polarisation when free and higher when bound to something large.

Test [3] is described as follows: X-ray diffraction of cholesterol-enriched POPC membranes without oxidative conditions (Example 8). Conditions: 5 mol %; 50 mol % cholesterol; 15° C., 20° C., 30° C. (FIG. 18). As for the experimental part: Values are mean±S.D. (N=3).
FIGS. 18A-18C show representative x-ray diffraction patterns collected from cholesterol-enriched model membranes treated with vehicle (control), eicosapentaenoic acid (EPA), or docosahexaenoic acid (DHA) and examined at 15° C., 20° C., and 30° C. Membranes were reconstituted from POPC and cholesterol at 50 mol % cholesterol and treated with each of the various agents at 5 mol % (to match treatments used in corresponding lipid dynamics experiments). Each sample was maintained at 74% relative humidity by exposing the samples to a saturated solution of L-(+) tartaric acid. […] DHA, but not EPA or vehicle, induced the formation of cholesterol domains, which are indicated by a distinct set of diffraction peaks (shaded peaks) having a characteristic d-space value of 34 Å and shown to be stable over a broad range of temperatures.
(§1) Multilamellar vesicles (MLVs) were prepared as binary mixtures of POPC and cholesterol at 50 mol %. MLVs with DLPC and cholesterol at cholesterol-to-phospholipid (C/P) mole ratios of 0.1:1 to 1.1:1 were also prepared in a similar manner. Component lipids (in chloroform) were transferred to borosilicate culture tubes and combined with vehicle (ethanol) or an equal volume of EPA, DHA, fenofibrate, niacin or gemfibrozil stock solution(s) and adjusted to achieve a drug-to-phospholipid (D/P) mole ratio of 1:30. Membranes reconstituted from POPC and cholesterol (at 50 mol % cholesterol) were treated with each of the various agents at 5 mol %. Samples were then shell-dried under nitrogen gas and placed under vacuum for 3 hours to remove residual solvent.
Membrane samples were oriented for x-ray diffraction analysis as described in Mason, et al., J. Biol. Chem., vol. 281, pages 9337-45 (2006). Briefly, 100 μL aliquots of each MLV preparation (containing 250 μg of phospholipid) were transferred to Lucite sedimentation cells fitted with a removable aluminum foil substrate designed to collect MLVs into a single membrane pellet upon centrifugation. […]

Test [4] is described as follows: X-ray diffraction of glucose-treated DLPC/cholesterol membranes under oxidative conditions (Example 8). The following applies: for effect on d-space values: 10.0 μM, 0.6 C/P, glucose-induced lipid peroxidation 72 hours (FIG. 14); for cholesterol domain peaks compared to samples treated with EPA: after 96 hours, C/P 0.6:1, drug-to-phospholipid 1:30. As for the experimental part:
Values are reported as mean±S.D. (N=3).
[…] Membranes were reconstituted from DLPC and cholesterol at a C/P mole ratio of 0.6:1 and treated with the various agents to achieve a total drug-to-phospholipid mole ratio of 1:30.
as §1
After drying, each sample was resuspended in glucose-free or glucose-containing saline buffer to yield a final phospholipid concentration of 2.5 mg/mL. Lipid suspensions were then vortexed for 3 minutes at ambient temperature to form MLVs.
Membrane samples were oriented for x-ray diffraction analysis as described in Mason, et al., J. Biol. Chem., vol. 281, pages 9337-45 (2006). Briefly, 100 μL aliquots of each MLV preparation (containing 250 μg of phospholipid) were transferred to Lucite sedimentation cells fitted with a removable aluminum foil substrate designed to collect MLVs into a single membrane pellet upon centrifugation. Samples were then loaded into a Sorvall AH-629 swinging bucket ultracentrifuge rotor (DuPont Corp., Wilmington, Del.) and centrifuged at 35,000 g, 5° C., for 1.5 hours.
Following membrane orientation, sample supernatants were aspirated and aluminum foil substrates mounted onto curved glass slides. The membrane samples were then placed in hermetically sealed containers in which temperature and relative humidity were controlled during x-ray diffraction analysis. Data reported in this study were collected at 20° C. and 74% relative humidity.
This technique allows for precise measurement of the unit cell periodicity, or d-space, of the membrane lipid bilayer, which is the distance from the center of one lipid bilayer to the next, including surface hydration.
The presence of cholesterol domains in a given membrane sample results in the production of distinct Bragg (diffraction) peaks that have singular periodicity values of 34 Å and 17 Å. These peaks are typically referred to as first- and second-order cholesterol domain peaks.

Molecules are shown by their SMILES.

Regarding `CC(C)c1c(C(=O)Nc2ccccc2O)c(-c2ccccc2)c(-c2ccc(F)cc2)n1CC[C@@H](O)C[C@@H](O)CC(=O)O` [ATM, Atorvastatin ortho- (o-) hydroxy (active) metabolite, reference compound], in test [1], the “antioxidant effect (LOOH formation), separate treatments” value was “separate and potent antioxidant effects”.
With `CC/C=C\C/C=C\C/C=C\C/C=C\C/C=C\C/C=C\CCC(=O)O` [DHA, cis-4,7,10,13,16,19-docosahexaenoic acid, reference compound], the “DPH apparent rotational correlation time / membrane fluidity” value in test [2] is “reduced DPH apparent rotational correlation time”. Besides, in test [3], the “membrane cholesterol domain formation” value is given as “induced formation of membrane cholesterol domains”.
In the case of `Cc1ccc(C)c(OCCCC(C)(C)C(=O)O)c1` [gemfibrozil], in test [4], the “effect on d-space values” is “significant reductions in d-space” and the “cholesterol domain peaks compared to samples treated with EPA” value is on record as “disproportionately greater”.
Turning to `O=C(O)c1cccnc1` [niacin, nicotinic acid], in test [4], the “effect on d-space values” was “significant reductions in d-space” and the “cholesterol domain peaks compared to samples treated with EPA” value is reported as “disproportionately greater”.
